# Molecular target: T1, α4β1 integrin (Homo sapiens, UniProt P05556+P13612)
# T1 construct: endogenous in cells; host or cells: Ramos cells
# Assay: Adhesion of calcein-labeled Ramos cells to CS1 (fibronectin) peptide conjugated ovalbumin
# Type: cell-based
# Details: Ramos cell adhesion to CS1 conjugated ovalbumin
# Method in brief: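 Calcein AM-labelled Ramos cells (2.5×10^5/well) with compound, up to 100 μM, added to plates coated with CS1 peptide–ovalbumin (0.5 μg/ml) and blocked with 3% BSA. Binding buffer TBS pH 7.5 with 1 mM each MgCl2, CaCl2, MnCl2; 30 min, 37 °C. After washes, adherent cells lysed and read fluorometrically; […].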
# [1] = Table 5, dose required to give 50% inhibition
# [2] = Table 7, dose required to give 50% inhibition
# T1 sequence (P13612 34-1032): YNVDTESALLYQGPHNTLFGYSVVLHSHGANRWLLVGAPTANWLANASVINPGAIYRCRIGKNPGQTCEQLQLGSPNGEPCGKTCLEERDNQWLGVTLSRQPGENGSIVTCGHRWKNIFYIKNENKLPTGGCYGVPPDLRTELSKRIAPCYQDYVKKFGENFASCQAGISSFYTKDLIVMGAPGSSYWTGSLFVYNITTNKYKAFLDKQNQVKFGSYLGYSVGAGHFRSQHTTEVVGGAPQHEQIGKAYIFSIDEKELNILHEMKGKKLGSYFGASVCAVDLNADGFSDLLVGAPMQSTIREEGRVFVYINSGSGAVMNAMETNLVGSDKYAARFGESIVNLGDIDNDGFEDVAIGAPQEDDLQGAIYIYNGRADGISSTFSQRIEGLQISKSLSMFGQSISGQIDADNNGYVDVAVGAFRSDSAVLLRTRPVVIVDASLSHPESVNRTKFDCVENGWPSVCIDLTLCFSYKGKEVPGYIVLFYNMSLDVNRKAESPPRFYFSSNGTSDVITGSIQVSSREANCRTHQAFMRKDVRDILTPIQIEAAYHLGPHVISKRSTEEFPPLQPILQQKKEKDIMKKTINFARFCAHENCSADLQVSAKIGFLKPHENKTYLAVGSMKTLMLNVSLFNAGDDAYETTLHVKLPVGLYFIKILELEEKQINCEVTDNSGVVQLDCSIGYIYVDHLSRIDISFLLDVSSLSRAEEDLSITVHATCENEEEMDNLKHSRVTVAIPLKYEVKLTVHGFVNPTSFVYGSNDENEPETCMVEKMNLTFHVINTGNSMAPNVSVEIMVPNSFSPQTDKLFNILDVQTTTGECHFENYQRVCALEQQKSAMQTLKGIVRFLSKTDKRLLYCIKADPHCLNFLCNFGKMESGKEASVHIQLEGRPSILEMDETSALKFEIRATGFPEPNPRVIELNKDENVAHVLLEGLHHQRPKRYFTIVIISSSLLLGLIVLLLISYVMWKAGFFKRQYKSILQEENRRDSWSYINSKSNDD
# T1 sequence (P05556 21-798): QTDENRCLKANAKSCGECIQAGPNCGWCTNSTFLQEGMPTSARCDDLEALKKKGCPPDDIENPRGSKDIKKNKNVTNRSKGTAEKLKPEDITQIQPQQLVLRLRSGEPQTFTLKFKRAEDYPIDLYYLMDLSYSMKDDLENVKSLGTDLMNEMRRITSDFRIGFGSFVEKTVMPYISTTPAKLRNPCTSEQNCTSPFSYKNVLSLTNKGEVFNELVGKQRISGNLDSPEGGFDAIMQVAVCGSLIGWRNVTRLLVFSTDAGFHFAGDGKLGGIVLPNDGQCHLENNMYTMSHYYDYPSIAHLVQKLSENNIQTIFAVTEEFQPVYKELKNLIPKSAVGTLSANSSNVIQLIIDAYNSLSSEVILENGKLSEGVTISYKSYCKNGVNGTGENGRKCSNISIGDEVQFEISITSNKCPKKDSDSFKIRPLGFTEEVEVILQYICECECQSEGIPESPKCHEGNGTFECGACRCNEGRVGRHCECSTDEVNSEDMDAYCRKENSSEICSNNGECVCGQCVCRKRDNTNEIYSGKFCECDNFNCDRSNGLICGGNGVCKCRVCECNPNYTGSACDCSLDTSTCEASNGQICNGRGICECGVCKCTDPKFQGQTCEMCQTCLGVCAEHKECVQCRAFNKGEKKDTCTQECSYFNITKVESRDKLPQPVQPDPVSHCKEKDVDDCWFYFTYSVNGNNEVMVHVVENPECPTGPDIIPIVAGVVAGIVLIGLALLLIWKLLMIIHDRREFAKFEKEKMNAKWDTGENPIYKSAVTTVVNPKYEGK
smiles,measurement,setting,value
Cc1ccc([C@H](CC(=O)O)NC(=O)Nc2cccn(Cc3cc([N+](=O)[O-])ccc3Br)c2=O)cc1,IC50,"Table 4, 30 minutes at 37° C.",2000 nM
Cc1cn(Cc2ccccc2Cl)c(=O)c(NC(=O)N[C@@H](CC(=O)O)c2cccc(C(F)(F)F)c2)c1O,IC50,"Table 6, 30 minutes at 37° C.",10 nM
Cc1ccc([C@H](CC(=O)O)NC(=O)Nc2c(O)ccn(Cc3c(C)cc(C)cc3C)c2=O)cc1,IC50,[1],60 nM
COc1ccccc1-c1ccc([C@H](CC(=O)O)NC(=O)Nc2c(O)c(C)cn(Cc3ccccc3Cl)c2=O)cc1,IC50,[2],25 nM
COc1ccc(Cn2cccc(NC(=O)N[C@@H](CC(=O)O)c3ccc4c(c3)OCO4)c2=O)cc1,IC50,"Table 4, 30 minutes at 37° C.",3000 nM
Cc1ccc([C@H](CC(=O)O)NC(=O)Nc2c(O)ccn(Cc3ccc(OC(F)(F)F)cc3)c2=O)cc1,IC50,[1],25 nM
CCC(CC)Oc1cccc([C@H](CC(=O)O)NC(=O)Nc2c(O)c3c(n(Cc4ccccc4Cl)c2=O)CCC3)c1,IC50,[2],20 nM
"CCOc1cc(OCC)cc([C@H](CC(=O)O)NC(=O)Nc2c(O)c3c(n(Cc4c(Cl)cccc4OCC)c2=O)CCC3)c1 [(3S)-3-[({[1-(2-chloro-6-ethoxybenzyl)-4-hydroxy-2-oxo-2,5,6,7-tetrahydro-1H-cyclopenta[b]pyridin-3-yl]amino}carbonyl)amino]-3-(3,5-diethoxyphenyl)propanoic acid]",IC50,[2],3 nM
Cc1ccc([C@H](CC(=O)O)NC(=O)Nc2c(O)c(C)cn(Cc3cc(Cl)ccc3F)c2=O)cc1,IC50,"Table 6, 30 minutes at 37° C.",15 nM
CC(C)C[C@H](CC(=O)O)NC(=O)Nc1c(N2CCOCC2)ccn(Cc2ccccc2Cl)c1=O,IC50,"Table 4, 30 minutes at 37° C.",100 nM
CCCc1cn(Cc2c(Cl)cccc2OC)c(=O)c(NC(=O)N[C@@H](CC(=O)O)c2ccc(OCC)c(OCC)c2)c1O,IC50,"Table 6, 30 minutes at 37° C.",3 nM
N#Cc1cccc(CN2CCCCC(NC(=O)N[C@@H](CC(=O)O)c3ccc4c(c3)OCO4)C2=O)c1 (stereo partly shown),IC50,"Table 4, 30 minutes at 37° C.",40 nM
COc1ccc([C@H](CC(=O)O)NC(=O)Nc2cccn(Cc3cccs3)c2=O)cc1,IC50,"Table 4, 30 minutes at 37° C.",800 nM
Cc1ccc([C@@H](NC(=O)Nc2c(O)c(C)cn(Cc3ccccc3Cl)c2=O)[C@H](C)C(=O)O)cc1,IC50,[2],1500 nM
"CCOc1cccc(Cl)c1Cn1cc(C)c(O)c(NC(=O)N[C@@H](CC(=O)O)c2ccc3c(ccn3C)c2)c1=O [(3S)-3-[({[1-(2-chloro-6-ethoxybenzyl)-4-hydroxy-5-methyl-2-oxo-1,2-dihydropyridin-3-yl]amino}carbonyl)amino]-3-(1-methyl-1H-indol-5-yl)propanoic acid]",IC50,[2],3 nM
O=C(O)C[C@H](NC(=O)Nc1c(O)ccn(Cc2ccccc2Cl)c1=O)C(c1ccccc1)c1ccccc1,IC50,[1],12000 nM
Cc1ccc([C@H](CC(=O)O)NC(=O)Nc2c(O)ccn(Cc3ccc(Cl)cc3Cl)c2=O)cc1,IC50,[1],60 nM
"Cc1ccc([C@H](CC(=O)O)NC(=O)Nc2c(O)c(Cl)cn(Cc3ccccc3Cl)c2=O)cc1 [(3S)-3-[({[5-chloro-1-(2-chlorobenzyl)-4-hydroxy-2-oxo-1,2-dihydropyridin-3-yl]amino}carbonyl)amino]-3-(4-methylphenyl)propanoic acid]",IC50,"Table 6, 30 minutes at 37° C.",6 nM
"Cc1cccc([C@H](CC(=O)O)NC(=O)Nc2c(O)ccn(Cc3ccccc3Cl)c2=O)c1 [(3S)-3-{[({1-[(2-chlorophenyl)methyl]-4-hydroxy-2-oxo-1,2-dihydro-3-pyridinyl}amino)carbonyl]amino}-3-(3-methylphenyl)propanoic acid]",IC50,"Table 3, 30 minutes at 37° C.",20 nM
CCOc1c(Cl)ccc([C@H](CC(=O)O)NC(=O)Nc2c(O)c3c(n(Cc4ccccc4Cl)c2=O)CCC3)c1Cl,IC50,[2],225 nM
Cc1ccc([C@H](CC(=O)O)NC(=O)Nc2cccn(Cc3nc4ccccc4o3)c2=O)cc1,IC50,"Table 4, 30 minutes at 37° C.",> 10000 nM
Cc1cccc(Cl)c1Cn1c2c(c(O)c(NC(=O)N[C@@H](CC(=O)O)c3ccccc3)c1=O)CCC2,IC50,[2],17 nM
Cc1cn(Cc2ccccc2Cl)c(=O)c(NC(=O)N[C@@H](CC(=O)O)c2cccc(OC(F)(F)F)c2)c1O,IC50,"Table 6, 30 minutes at 37° C.",10 nM
O=C(O)C[C@H](NC(=O)Nc1c(O)ccn(Cc2ccccc2Cl)c1=O)c1cccc(OC2CCCC2)c1,IC50,"Table 6, 30 minutes at 37° C.",5 nM
COc1ccc(-c2ccc([C@H](CC(=O)O)NC(=O)Nc3c(O)c(C)cn(Cc4ccccc4Cl)c3=O)cc2)cc1,IC50,[2],23 nM
COc1cccc(Cn2cccc(NC(=O)N[C@@H](CC(=O)O)c3ccc(C)cc3)c2=O)c1,IC50,"Table 4, 30 minutes at 37° C.",200 nM
"Cc1ccc([C@H](CC(=O)O)NC(=O)Nc2c(N)cc(C)n(Cc3ccccc3Cl)c2=O)cc1 [(3S)-3-{[({4-amino-1-[(2-chlorophenyl)methyl]-6-methyl-2-oxo-1,2-dihydro-3-pyridinyl}amino)carbonyl]amino}-3-(4-methylphenyl)propanoic acid]",IC50,"Table 3, 30 minutes at 37° C.",10 nM
Cc1ccccc1C[C@H](CC(=O)O)NC(=O)Nc1c(O)ccn(Cc2ccccc2Cl)c1=O,IC50,[1],80 nM
Cc1ccc([C@H](CC(=O)O)NC(=O)Nc2c(O)ccn(Cc3ccc(Cl)c(Cl)c3)c2=O)cc1,IC50,[1],45 nM
O=C(O)C[C@H](NC(=O)Nc1cccn(Cc2ccccc2)c1=O)c1ccc2c(c1)OCO2,IC50,"Table 4, 30 minutes at 37° C.",500 nM
COc1ccc2cc([C@H](CC(=O)O)NC(=O)Nc3c(O)c4c(n(Cc5ccccc5Cl)c3=O)CCC4)ccc2c1,IC50,[2],3 nM
COc1cc([C@H](CC(=O)O)NC(=O)Nc2cccn(Cc3cccs3)c2=O)cc(OC)c1OC,IC50,"Table 4, 30 minutes at 37° C.",300 nM
Cc1ccc([C@H](CC(=O)O)NC(=O)Nc2cccn(Cc3cccc(Cl)c3Cl)c2=O)cc1,IC50,"Table 4, 30 minutes at 37° C.",350 nM
Cc1cccc(Cl)c1Cn1c2c(c(O)c(NC(=O)N[C@@H](CC(=O)O)c3cccc(OC4CCC4)c3)c1=O)CCC2,IC50,[2],20 nM
Cc1cn(Cc2ccccc2Cl)c(=O)c(NC(=O)N[C@@H](CC(=O)O)c2ccc3ccn(C)c3c2)c1O,IC50,[2],4 nM
Cc1ccc([C@H](CC(=O)O)NC(=O)Nc2c(O)c(C)c(C)n(Cc3c(C)cccc3Cl)c2=O)cc1,IC50,[1],30 nM
Cc1ccc([C@H](CC(=O)O)NC(=O)Nc2c(O)ccn(Cc3ccccc3OC(F)(F)F)c2=O)cc1,IC50,[1],25 nM
CCOc1cccc([C@H](CC(=O)O)NC(=O)Nc2c(O)c(C3CC3)cn(Cc3ccccc3Cl)c2=O)c1,IC50,"Table 6, 30 minutes at 37° C.",14 nM
Cc1ccccc1[C@H](CC(=O)O)NC(=O)Nc1cccn(Cc2ccccc2Cl)c1=O,IC50,"Table 4, 30 minutes at 37° C.",3000 nM
Cc1ccc([C@H](CC(=O)O)NC(=O)Nc2cccn(Cc3ccccc3F)c2=O)cc1,IC50,"Table 4, 30 minutes at 37° C.",100 nM
O=C(O)C[C@H](NC(=O)Nc1c(O)c2c(n(Cc3ccccc3Cl)c1=O)CCC2)c1ccc(OC(F)(F)F)cc1,IC50,[2],13 nM
Cc1cn(Cc2ccccc2Cl)c(=O)c(NC(=O)NC(CC(=O)O)c2ccc3ccccc3c2)c1O (stereo not shown),IC50,[1],30 nM
CCCc1ccn(Cc2ccccc2Cl)c(=O)c1NC(=O)N[C@@H](CC(=O)O)c1ccc(C)cc1,IC50,"Table 3, 30 minutes at 37° C.",4 nM
Cc1ccc(N(CC(=O)O)NC(=O)Nc2c(O)ccn(Cc3ccccc3Cl)c2=O)cc1,IC50,[1],> 10000 nM
COc1cc([C@H](CC(=O)O)NC(=O)Nc2c(O)c(C)c(C)n(Cc3ccccc3Cl)c2=O)ccc1C,IC50,[1],15 nM
O=C(O)C[C@H](NC(=O)Nc1c(O)ccn(Cc2ccccc2Cl)c1=O)c1ccc(F)c(C(F)(F)F)c1,IC50,[1],25 nM
COc1cc(Cl)ccc1Cn1ccc(O)c(NC(=O)N[C@@H](CC(=O)O)c2ccc(C)cc2)c1=O,IC50,[1],25 nM
CCn1c2ccccc2c2cc([C@H](CC(=O)O)NC(=O)Nc3c(O)c(C)cn(Cc4ccccc4Cl)c3=O)ccc21,IC50,[2],23 nM
O=C(O)CC(NC(=O)Nc1c(O)c2c(n(Cc3ccccc3Cl)c1=O)CCC2)c1ccco1 (stereo not shown),IC50,[2],5 nM
Cc1ccc([C@H](CC(=O)O)NC(=O)Nc2cccn(Cc3cc(F)ccc3Br)c2=O)cc1,IC50,"Table 4, 30 minutes at 37° C.",500 nM
Cc1cn(Cc2ccccc2Cl)c(=O)c(NC(=O)N[C@@H](CC(=O)O)c2ccc3c(c2)CCO3)c1O,IC50,[2],6 nM
"Cc1ccc([C@H](CC(=O)O)NC(=O)Nc2c(Nc3ccc(C(=O)O)cc3)ccn(Cc3ccccc3Cl)c2=O)cc1 [4-{[3-[({[(1S)-2-carboxy-1-(4-methylphenyl)ethyl]amino}carbonyl)amino]-1-(2-chlorobenzyl)-2-oxo-1,2-dihydropyridin-4-yl]amino}benzoic acid]",IC50,[1],4 nM
Cc1ccc([C@H](CC(=O)O)NC(=O)Nc2c(O)c(C)cn(Cc3c(Cl)cccc3OCC3CCCC3)c2=O)cc1,IC50,[2],20 nM
"Cc1ccc([C@H](CC(=O)O)NC(=O)Nc2c(O)c(C)cn(Cc3ccccc3Cl)c2=O)cc1 [(3S)-3-[({[1-(2-chlorobenzyl)-4-hydroxy-5-methyl-2-oxo-1,2-dihydropyridin-3-yl]amino}carbonyl)amino]-3-(4-methylphenyl)propanoic acid]",IC50,[1],5 nM
"CCOc1cccc(Cl)c1Cn1cc(C)c(O)c(NC(=O)N[C@@H](CC(=O)O)c2cccc(OC(C)C)c2)c1=O [(3S)-3-[({[1-(2-chloro-6-ethoxybenzyl)-4-hydroxy-5-methyl-2-oxo-1,2-dihydropyridin-3-yl]amino}carbonyl)amino]-3-(3-isopropoxyphenyl)propanoic acid]",IC50,"Table 6, 30 minutes at 37° C.",4 nM
Cc1cn(Cc2ccccc2Cl)c(=O)c(NC(=O)N[C@@H](CC(=O)O)c2cccc(-c3ccccc3F)c2)c1O,IC50,[2],25 nM
O=C(O)C[C@H](NC(=O)Nc1c(O)c2c(n(Cc3ccccc3Cl)c1=O)CCC2)c1cc(F)cc(F)c1,IC50,[2],7 nM
O=C(O)C[C@H](NC(=O)Nc1c(O)c2c(n(Cc3ccccc3Cl)c1=O)CCC2)c1ccc(OC(F)F)cc1,IC50,[2],13 nM
"O=C(O)C[C@H](NC(=O)Nc1c(O)ccn(Cc2ccccc2Cl)c1=O)c1cccc(C(F)(F)F)c1 [(3S)-3-{[({1-[(2-chlorophenyl)methyl]-4-hydroxy-2-oxo-1,2-dihydro-3-pyridinyl}amino)carbonyl]amino}-3-[3-(trifluoromethyl)phenyl]propanoic acid]",IC50,"Table 3, 30 minutes at 37° C.",20 nM
Cc1ccc([C@H](CC(=O)O)NC(=O)Nc2cccn(Cc3ccc(F)cc3)c2=O)cc1,IC50,[1],2000 nM
CCOc1cccc(Cl)c1Cn1nc(C)c(O)c(NC(=O)N[C@@H](CC(=O)O)c2ccc(C)cc2)c1=O,IC50,[2],7 nM

# From US6972296B2, “Carboxylic acid derivatives that inhibit the binding of integrins to their receptors” (Encysive Pharmaceuticals Inc., priority 1999, dated 2005)
